Measurements taken from ChEMBL document CHEMBL4261605, “Discovery of a novel series of pyridine and pyrimidine carboxamides as potent and selective covalent inhibitors of Btk” (Bioorg Med Chem Lett, 2018).

Experiments:
[1] = molecular target: T1, Tyrosine-protein kinase BTK (Homo sapiens, UniProt Q06187); experiment: Inhibition of recombinant human full length N-terminal GST-tagged BTK (2 to 659 residues) expressed in baculovirus expression system using FITC-AHA-EEPLYWSFPAKKK-NH2 substrate measured after 90 mins by off-chip mobility shift assay
[2] = molecular target: T1, Tyrosine-protein kinase BTK; experiment: Inhibition of BTK in goat anti-human IgM F(ab')2-stimulated human PBMC assessed as suppression of BCR-induced CD69 expression on B cells pretreated for 1 hr followed by blood stimulation measured after overnight incubation by flow cytometry; type: cell-based
[3] = Efflux ratio of permeability in human Caco2 cells; conditions: Caco-2
[4] = Permeability across apical to basolateral side in human Caco2 cells; conditions: Caco-2
[5] = Half life in mouse at 0.5 mg/kg, po; type: ADME, organism-based; conditions: in vivo
[6] = molecular target: T2, Cytochrome P450 2B6 (Homo sapiens, UniProt P20813); experiment: Inhibition of CYP2B6 (unknown origin); type: ADME
T2 sequence (P20813 whole entry): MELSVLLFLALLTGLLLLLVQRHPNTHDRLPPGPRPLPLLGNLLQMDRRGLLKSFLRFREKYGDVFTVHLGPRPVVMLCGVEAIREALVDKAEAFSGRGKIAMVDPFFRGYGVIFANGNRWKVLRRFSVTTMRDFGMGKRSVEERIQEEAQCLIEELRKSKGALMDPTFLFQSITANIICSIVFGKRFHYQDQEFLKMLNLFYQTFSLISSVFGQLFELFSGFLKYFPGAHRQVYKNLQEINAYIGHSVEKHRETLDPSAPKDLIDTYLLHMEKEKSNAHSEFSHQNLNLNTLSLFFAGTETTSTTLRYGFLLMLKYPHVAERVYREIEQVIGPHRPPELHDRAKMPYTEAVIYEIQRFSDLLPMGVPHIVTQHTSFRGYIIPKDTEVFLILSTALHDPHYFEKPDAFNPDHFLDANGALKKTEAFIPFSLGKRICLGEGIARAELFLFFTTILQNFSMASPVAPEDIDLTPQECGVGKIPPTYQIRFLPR

[7] = molecular target: Cytochrome P450 2C19 (Homo sapiens, UniProt P33261); experiment: Inhibition of CYP2C19 (unknown origin); type: ADME
[8] = molecular target: Cytochrome P450 3A4 (Homo sapiens, UniProt P08684); experiment: Inhibition of CYP3A4 (unknown origin); type: ADME
[9] = AUC in mouse at 0.5 mg/kg, po; type: ADME, organism-based; conditions: in vivo
[10] = molecular target: Cytochrome P450 2C9 (Homo sapiens, UniProt P11712); experiment: Inhibition of CYP2C9 (unknown origin); type: ADME
[11] = molecular target: T3, Cytochrome P450 2C8 (Homo sapiens, UniProt P10632); experiment: Inhibition of CYP2C8 (unknown origin); type: ADME
T3 sequence (P10632 whole entry): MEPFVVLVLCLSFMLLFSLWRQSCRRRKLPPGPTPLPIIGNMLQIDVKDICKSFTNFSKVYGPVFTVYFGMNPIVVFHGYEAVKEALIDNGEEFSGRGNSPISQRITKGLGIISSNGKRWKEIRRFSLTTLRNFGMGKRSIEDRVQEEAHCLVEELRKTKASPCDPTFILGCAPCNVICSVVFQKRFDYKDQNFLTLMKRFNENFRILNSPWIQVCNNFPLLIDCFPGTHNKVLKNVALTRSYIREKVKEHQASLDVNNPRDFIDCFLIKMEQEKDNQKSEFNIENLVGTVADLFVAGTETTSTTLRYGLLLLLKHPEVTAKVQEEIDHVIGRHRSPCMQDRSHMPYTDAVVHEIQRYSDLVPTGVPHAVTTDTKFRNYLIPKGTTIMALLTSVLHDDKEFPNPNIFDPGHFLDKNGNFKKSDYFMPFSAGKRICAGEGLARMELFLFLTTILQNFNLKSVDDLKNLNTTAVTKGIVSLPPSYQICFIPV

[12] = molecular target: T1, Tyrosine-protein kinase BTK; experiment: Inhibition of recombinant human full length N-terminal GST-tagged BTK (2 to 659 residues) expressed in baculovirus expression system at 100 uM using FITC-AHA-EEPLYWSFPAKKK-NH2 substrate measured after 90 mins by off-chip mobility shift assay relative to control

T1 sequence (Q06187 whole entry, the tested form may be a part): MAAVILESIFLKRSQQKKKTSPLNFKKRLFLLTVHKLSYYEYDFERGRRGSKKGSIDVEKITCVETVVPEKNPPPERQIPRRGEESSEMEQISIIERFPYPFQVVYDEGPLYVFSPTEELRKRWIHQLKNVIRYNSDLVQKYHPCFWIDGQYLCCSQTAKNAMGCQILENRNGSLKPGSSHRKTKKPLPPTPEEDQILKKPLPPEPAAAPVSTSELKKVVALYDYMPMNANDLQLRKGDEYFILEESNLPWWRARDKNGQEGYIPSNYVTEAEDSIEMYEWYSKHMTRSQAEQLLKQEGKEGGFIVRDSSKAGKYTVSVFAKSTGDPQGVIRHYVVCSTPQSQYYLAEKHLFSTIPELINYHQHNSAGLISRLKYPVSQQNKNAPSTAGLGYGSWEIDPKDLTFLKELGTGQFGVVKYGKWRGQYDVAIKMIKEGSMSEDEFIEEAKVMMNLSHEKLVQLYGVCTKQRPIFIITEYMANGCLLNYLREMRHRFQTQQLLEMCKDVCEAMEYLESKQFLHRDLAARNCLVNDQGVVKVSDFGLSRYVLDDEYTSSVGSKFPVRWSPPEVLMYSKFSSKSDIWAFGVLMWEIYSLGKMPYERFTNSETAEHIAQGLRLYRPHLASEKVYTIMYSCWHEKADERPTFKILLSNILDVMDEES
Chain of Cytochrome P450 2C19 (P33261 whole entry): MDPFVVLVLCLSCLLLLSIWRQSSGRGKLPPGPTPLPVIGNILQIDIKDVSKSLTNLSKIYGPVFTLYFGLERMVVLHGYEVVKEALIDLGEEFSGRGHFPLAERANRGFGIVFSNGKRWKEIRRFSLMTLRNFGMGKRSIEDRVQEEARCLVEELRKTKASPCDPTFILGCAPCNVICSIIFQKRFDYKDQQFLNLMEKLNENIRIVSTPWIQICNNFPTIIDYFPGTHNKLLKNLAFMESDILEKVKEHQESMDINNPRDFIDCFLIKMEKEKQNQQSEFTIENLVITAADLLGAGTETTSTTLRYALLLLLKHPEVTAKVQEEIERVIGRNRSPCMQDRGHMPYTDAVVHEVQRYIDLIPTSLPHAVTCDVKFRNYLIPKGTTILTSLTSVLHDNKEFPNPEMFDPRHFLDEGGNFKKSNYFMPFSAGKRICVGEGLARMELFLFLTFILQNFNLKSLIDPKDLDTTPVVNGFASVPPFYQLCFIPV
Chain of Cytochrome P450 3A4 (P08684 whole entry): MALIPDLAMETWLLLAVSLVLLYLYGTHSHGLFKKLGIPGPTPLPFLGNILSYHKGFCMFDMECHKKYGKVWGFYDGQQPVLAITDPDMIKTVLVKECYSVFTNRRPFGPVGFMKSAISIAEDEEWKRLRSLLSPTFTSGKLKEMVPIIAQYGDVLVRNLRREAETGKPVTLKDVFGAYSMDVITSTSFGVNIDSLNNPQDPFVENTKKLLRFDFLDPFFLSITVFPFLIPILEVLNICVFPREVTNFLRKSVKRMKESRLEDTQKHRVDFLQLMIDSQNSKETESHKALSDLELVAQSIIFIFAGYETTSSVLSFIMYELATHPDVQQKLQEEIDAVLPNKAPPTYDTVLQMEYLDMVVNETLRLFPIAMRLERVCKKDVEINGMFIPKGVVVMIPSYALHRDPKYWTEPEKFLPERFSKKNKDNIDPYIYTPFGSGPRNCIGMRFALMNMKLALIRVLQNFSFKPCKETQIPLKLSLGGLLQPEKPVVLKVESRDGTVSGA
Chain of Cytochrome P450 2C9 (P11712 whole entry): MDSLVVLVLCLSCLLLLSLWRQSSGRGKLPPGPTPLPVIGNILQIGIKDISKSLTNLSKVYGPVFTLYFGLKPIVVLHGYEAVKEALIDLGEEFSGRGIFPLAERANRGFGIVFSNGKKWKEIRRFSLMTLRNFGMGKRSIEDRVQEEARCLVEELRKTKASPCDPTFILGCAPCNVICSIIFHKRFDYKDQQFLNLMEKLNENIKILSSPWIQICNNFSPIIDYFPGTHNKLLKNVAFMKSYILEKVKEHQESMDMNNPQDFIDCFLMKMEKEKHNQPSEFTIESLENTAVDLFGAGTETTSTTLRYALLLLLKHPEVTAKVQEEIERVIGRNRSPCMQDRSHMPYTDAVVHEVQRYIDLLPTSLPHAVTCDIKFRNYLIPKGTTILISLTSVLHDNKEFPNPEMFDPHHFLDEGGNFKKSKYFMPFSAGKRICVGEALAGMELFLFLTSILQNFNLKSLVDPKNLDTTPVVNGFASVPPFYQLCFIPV

| IC50 [1] [nM] | IC50 [2] [nM] | SMILES | also measured |
| --- | --- | --- | --- |
| 11 |  | C=CC(=O)N[C@H]1CCN(c2ccc(C(N)=O)c(Nc3ccc(Oc4ccccc4)cc3)n2)C1 |  |
| 1.3 | 41 | C=CC(=O)N(C)[C@H]1CCN(c2ccc(C(N)=O)c(Nc3ccc(CCN4CCCC4)cc3)n2)C1 | efflux ratio [3]: 266; Papp A→B [4]: 0.07 ×10⁻⁶ cm/s |
| 8 |  | C=CC(=O)N[C@H]1CCN(c2ncc(C(N)=O)c(Nc3ccc(F)cc3)n2)C1 |  |
| 1600 |  | NC(=O)c1ccc(N2CC[C@H](N)C2)nc1Nc1ccc(C(=O)N2CCOCC2)cc1 |  |
| > 6000 |  | C=CC(=O)N[C@H]1CCN(c2ccc(C(N)=O)c(NC3CCCCC3)n2)C1 |  |
| 0.6 | 6.1 | C=CC(=O)N[C@H]1CCN(c2ccc(C(N)=O)c(Nc3ccc(N4C[C@@H](C)O[C@@H](C)C4)cc3)n2)C1 |  |
| 0.09 | 4.9 | C=CC(=O)N[C@@H]1CN(c2ccc(C(N)=O)c(Nc3ccc(CCN4CCCC4)cc3)n2)CC12CC2 | efflux ratio [3]: 822; Papp A→B [4]: 0.02 ×10⁻⁶ cm/s |
| 180 |  | C=CC(=O)N[C@H]1CCN(c2ncc(C(N)=O)c(N)n2)C1 |  |
| 1.6 | 14 | C=CC(=O)N[C@H]1CCN(c2nc(Nc3ccc(N4C[C@@H](C)O[C@@H](C)C4)cc3)c(C(N)=O)cc2F)C1 |  |
| 1.5 |  | C=CC(=O)N[C@H]1CCN(c2ccc(C(N)=O)c(Nc3ccc(C(=O)N4CCOCC4)cc3)n2)C1 |  |
| 0.3 | 4.3 | C=CC(=O)N1CCN(c2ccc(C(N)=O)c(Nc3ccc(CCN4CCCC4)cc3)n2)CC1 |  |
|  |  | C=CC(=O)N1CCC[C@@H](n2nc(-c3ccc(Oc4ccccc4)cc3)c3c(N)ncnc32)C1 [IBRUTINIB] | half-life [5]: 30 min; INH [6]: 11.1 µM; INH [7]: 19 µM; INH [8]: 11 µM; AUC [9]: 26 ng·h/mL; INH [10]: 8.5 µM; INH [11]: 7.9 µM |
| 16.2 |  | C=CC(=O)N[C@@H]1CCN(c2ccc(C(N)=O)c(Nc3ccc(C(=O)N4CCOCC4)cc3)n2)C1 |  |
| 500 |  | C=CC(=O)N[C@@H]1CCN(c2ncc(C(N)=O)c(N)n2)C1 |  |
| 16 |  | C=CC(=O)N[C@H]1CCCN(c2ccc(C(N)=O)c(Nc3ccc(C(=O)N4CCOCC4)cc3)n2)C1 |  |
| 0.5 |  | C=CC(=O)N[C@H]1CCN(c2ncc(C(N)=O)c(Nc3ccc(C(=O)N4CCOCC4)cc3)n2)C1 |  |
| > 6000 |  | NC(=O)c1ccc(NC2CCCCC2)nc1 | inhibition [12]: 71% |
| 1.9 | 7 | C=CC(=O)N[C@H]1CCN(c2ccc(C(N)=O)c(Nc3ccc(CCN4CCCC4)cc3)n2)C1 |  |
| 0.1 | 1.4 | C=CC(=O)N1C[C@H]2C[C@@H]1CN2c1ccc(C(N)=O)c(Nc2ccc(C)nc2)n1 |  |
| 1.1 | 44 | C=CC(=O)N[C@H]1CCN(c2ncc(C(N)=O)c(Nc3ccc(C(=O)N4CC(C)OC(C)C4)cc3)n2)C1 (some centres undefined) |  |
